Key:
[1] = molecular target: SALL4 (Homo sapiens (Human), UniProt Q9UJQ4); assay: SALL4 expression in Tera-1 cells (Western blot); type: cell-based; details: Tera-1 cells, 0.1 μM and 1 μM
Experimental: (§1) For Western blot analysis, total proteins were extracted using RIPA buffer (ThermoFisher Scientific, Waltham, MA) containing Halt Protease Inhibitor Cocktail (ThermoFisher Scientific). […] After incubation at 4° C. overnight, the following HRP conjugated secondary antibodies were used: (i) goat anti-rabbit IgG (ThermoFisher Scientific) for ikaros and aiolos, and (ii) goat anti-mouse IgG (ThermoFisher Scientific) for SALL4 and GAPDH. […] Antigen-antibody complexes were detected using enhanced chemiluminescence (Thermo, iBright CL1500).
Specifically, MM1.S cells were obtained from ATCC (Manassas, VA, USA), grown in RPMI media supplemented with 10% FBS, penicillin 100 U/mL, and streptomycin […], and maintained at 37° C. and 5% CO2.
as §1, with “MA, USA)” for “MA)”, “Scientific). Thereafter, the proteins were separated by gel electrophoresis and then transferred to polyvinylidene difluoride (PVDF) membranes (ThermoFisher Scientific), as described previously.” for “Scientific).”, “HRP-conjugated” for “HRP conjugated”, “Ikaros” for “ikaros”, “Aiolos,” for “aiolos,”, “(ThermoFisher Scientific,” for “(Thermo,”

[2] = system: IL-5; assay: LPS model of inflammation in rats: IL-5 in plasma and cortex; type: in vivo, rat; details: both doses; LPS-challenged rats
[3] = system: CCI-induced TBI mice; assay: CCI mouse model of TBI: brain lesion and lateral ventricle size (Giemsa); type: in vivo
Experimental: In vivo model of TBI: Mice were anesthetized with 2.5% tribromoethanol (Avertin: 250 mg/kg; Sigma, St. Louis, MO, USA) and placed in a stereotaxic frame (Kopf Instruments, Tujunga, CA, USA). A 4 mm craniotomy was performed using sterile procedures; the craniotomy point was selected midway between the lambda and bregma sutures and laterally midway between the central suture and the temporalis muscle. The skull fragment was then carefully removed without disruption of the underlying dura. Prior to injury induction, the tip of the impactor was angled and kept perpendicular to the exposed cortical surface. The mouse CCI instrument consisted of an electromagnetic impactor, Impact One (Leica Biosystems Inc., Buffalo Grove, IL, USA) that allows independent alteration of injury severity by controlling contact velocity and the level of cortical deformation. In these experiments, the contact velocity was set at 5.0 m/sec, the dwell time was set at 0.2 s and the deformation depth was set at 2 mm to produce a moderate TBI. The injury site was allowed to dry prior to suturing the wound. During surgery and recovery, the body temperature of the animals was maintained at 36-37° C. by using a heating pad. […] Mice were randomized following CCI to treatment with either of two doses of TFBP (16.25 mg/kg and 32.5 mg/kg, i.p.) or saline, and were dosed at 1 and 24 hr after the injury.
Tissue processing: Two weeks after injury, mice were deeply anesthetized with isoflurane and perfused transcardially with 30 ml phosphate buffered saline (PBS). After removal, the brain was post-fixed with 4% PFA overnight then transferred to a 30% sucrose solution in PBS. […]
Quantification of brain lesion and lateral ventricle size in TBI animals: One set of brain sections 2-weeks post-CCI were mounted on slides. […] Brain image regions were quantified using ImageJ 1.52q software (National Institutes of Health, Bethesda, MD). […] There were 9 brain sections from each mouse counted by blinded observers, with regions starting from bregma at 0.86 to −1.46 mm.
In Vivo Model of TBI: TBI studies were conducted in 8-week-old male C57/BL6 mice (25-30 g; n=20), Jackson Laboratory, Bar Harbor, Maine USA. Mice were randomly assigned to four groups prior surgery, CMC+Sham, CMC+TBI, compound 30 (Low dose (LD), 14.78 mg/kg, prepared in 1% CMC in PBS)+TBI, compound 30 (High dose (HD), 29.57 mg/kg)+TBI, and evaluated the effects of compound 30 on TBI. Mice were assessed for gait function and motor coordination, balance function. Animals were subsequently evaluated for cellular changes using histological and immunohistochemistry staining. […]

Compound | SALL4 expression levels [1] | SALL4 expression levels ([1]; listed as TFBP) | IL-5 expression in plasma (in words) [2] | lateral ventricle size ([3]; both doses, 2 weeks after TBI) | loss of cortical tissue (lesion volume) ([3]; higher dose 32.5 mg/kg, 2 weeks after TBI) | loss of cortical tissue (lesion volume) ([3]; lower dose 16.25 mg/kg, 2 weeks after TBI) | SALL4 expression levels ([1]; listed as TFNBP) | lesion size ([3]; low dose 14.78 mg/kg, 2 weeks post-TBI, vs CMC)
CC1(C)[C@@H]2CC[C@@]1(C)[C@@H](N1C(=O)c3c(F)c(F)c(F)c(F)c3C1=O)C2 [Compound 14, 4,5,6,7-Tetrafluoro-2-((1R,2S,4R)-1,7,7-trimethylbicyclo[2.2.1]heptan-2-yl) isoindoline-1,3-dione] | did not statistically affect | did not lower the expression of neosubstrate SALL4 | reduced IL-5 expression in plasma | did not reach statistical significance | failed to reach statistical significance | reduce loss of cortical tissue | – | –
O=C1c2c(F)c(F)c(F)c(F)c2C(=O)N1C1CC2CCC1C2 (stereo not drawn) [Compound 16, 2-Endo-(bicyclo[2.2.1]heptan-2-yl)-4,5,6,7-tetrafluoroisoindoline-1,3-dione] | did not statistically affect | – | reduced IL-5 expression in plasma | – | – | – | did not lower the expression of neosubstrate SALL4 | –
Nc1ccc(F)c2c1C(=S)N(C1CCC(=S)NC1=O)C2=O (stereo not shown) [Compound 30, 4-amino-7-fluoro-2-(2-oxo-6-thioxopiperidin-3-yl)-3-thioxoisoindolin-1-one] | – | – | – | – | – | – | – | significant reduction of the lesion size
